# Results reported in paper PMC9409361, “EsigGOBP1: The Key Protein Binding Alpha-Phellandrene in Endoclita signifer Larvae” (International Journal of Molecular Sciences, 2022).
# “Also recorded” adds a separate entry of the source. Where two headings read alike, the source gives them in different places.
# Legend:
# [1] = system: recombinant EsigGOBP1; test: Fluorescence competition binding assay (FCBA) with 1-NPN probe; design: species or system Endoclita signifer; settings: for binding affinities for EsigGOBP1 (in words): FCBA, ordered by Kd values; for Ki: calculated from IC50: Ki = [IC50]/(1 + [1-NPN]/K1-NPN); for IC50: competitive binding, 1-NPN and EsigGOBP1 both at 2 μM, ligands 2–24 μM, pH 7.4
# Method: N-phenyl-1-naphthylamine (1-NPN) was selected for use as a selectively fluorescent probe to measure the affinity of ligand binding to recombinant EsigGOBP1 [20, 42]. Twelve volatiles (Table 1) from eucalyptus trunks and humus soil under eucalyptus plantation were collected, identified and screened using the dynamic headspace adsorption method, gas chromatograph coupled to mass selective detector, gas chromatograph electroantennal detection and Y-tube olfactometer bioassay (Table S1). […] A 2 μM solution of EsigGOBP1 was prepared in 20 mM Tris-HCl buffer (pH 7.4), and the ligands were dissolved in chromatographically pure methanol as 1 mM stock solutions. […] Intensity values corresponding to maximum fluorescence emission were plotted against free ligand concentrations to determine dissociation constants. K1-NPN values were calculated by Scatchard plots to linearize curves.
# [2] = system: EsigGOBP1 expression in the head of E. signifer larvae; test: qRT-PCR expression of EsigGOBP1 in larval heads after exposure to volatiles; type: in vivo, Endoclita signifer
# Method: The 3rd and 5th instar larvae of E. signifer were exposed to 12 GC-EAD active volatile compounds (Table S1). The exposure method followed that of Llopis-Gimenez and Hu. Thirty-three 5th instar larvae were exposed to ten compounds and only methanol (control) with three biological replicates (50 μL of each odorant diluted to 10 g/L in methanol in a 50 mL jar for 24 h). Thereafter, the total RNA from the heads of these larvae were extracted and its concentration and purity measured. The residual genomic DNA in the total RNA was removed using DNase I (Thermo Scientific, Waltham, MA, USA) then purified RNA used to synthesize cDNA following the method of Zhang. The treatments carried out on the 5th instar larvae, were the same as applied to 3rd instar larvae (n = 27) (eight compounds, one control; three biological replicates). The sequence of the gene-specific primers of EsigGOBP1 were as follow: forward primer: 5′-[…]-3′; reverse primer: 5′-[…] TCTCGT-3′ [37]. Roche LIGHT CYCLE 480II (USA) and Genious 2X SYBR Green Fast qPCR Mix (No ROX) (No. RK21205; ABclonal, Wuhan, China) were used for a PCR reaction under a three-step amplification program. Each 20 µL real-time fluorescence quantification PCR (qRT-PCR) reaction mixture contained 10 µL of Genious 2X SYBR Green Fast qPCR Mix, […] ([…]), 2 µL of sample cDNA (2.5 ng of RNA), and […] of dH2O (sterile distilled water), with the following cycling parameters: 95 °C for 180 s, followed by 40 cycles of 95 °C for 5 s, 60 °C for 30 s, and 65 °C to 95 °C in increments of 0.5 °C for 5 s to generate melting curves. The sequences of the primers of the reference gene, GADPH were forward primer 5′-[…]-3′; reverse primer 5′-[…]-3′ [60]. The measurement of the expression of EsigGOBP1 in head, thorax and abdomen of 3rd instar larvae followed the protocol of Zhang. Each qRT-PCR reaction for each volatile exposure and tissues, was performed in three biological replicates and three technical replicates in Roche LIGHT CYCLE 480II. The expression of EsigGOBP1, from exposure to o-cymene and camphene served as the control for the 3rd and 5th instar larvae, respectively, and GADPH was used to measure the relative gene expressions by the 2^−ΔΔCT method. The 2^−ΔCT method was used to measure gene expressions in the tissues of 3rd instar larvae with 0.91 amplicons efficiencies. Differences in the expression of olfactory proteins were determined using a one-sample t-test. All analyses were implemented in SPSS Statistics 18.0, and values are presented as means ± SE.
# [3] = system: E. signifer larvae; settings: cited from earlier work; for influence on the behaviour of E. signifier: ref [35],[36]; for attraction in behavior choice assays: ref [33],[34]
# [4] = competitive binding against 1-NPN, read-out: calculated Kd
# [5] = 3rd instar larvae, 24 h exposure to volatile
# [6] = 5th instar larvae, 24 h exposure to volatile
Compound,binding affinities for EsigGOBP1 (in words) [1],Ki [1] [nM],"Kd [1, 4] [nM]",IC50 [1] [nM],"EsigGOBP1 expression vs control [2, 5]",further results
"Cc1cc(C)cc(C)c1 [1,3,5-trimethyl-benzen]",low binding affinities,4600,4600,,,
"c1ccc(Nc2cccc3ccccc23)cc1 [1-NPN, N-phenyl-1-naphthylamine, reference compound]",,,,,,"Kd ([1]; binding curve and Scatchard plots, 1-NPN 2–24 μM, 2 μM EsigGOBP1, read-out: dissociation constant K1-NPN): 3380 nM"
CC(C)(O)c1ccccc1 [2-Phenyl-2-propanol],low binding affinities,2760,2770,22000,,
CC1=CCC2C(C1)C2(C)C (centres unmarked) [3-carene],,,,,downregulated; also recorded: extremely significantly lower,
CCc1ccc(C(C)=O)cc1 [4-ethylacetophenone],,,,,downregulated; also recorded: extremely significantly lower,
"CCc1ccccc1CC [Benzene, 1,2-diethyl-]",high binding affinities,792,790,6300,,"EsigGOBP1 expression vs control ([2]; 5th instar larvae, 24 h exposure to volatile, 1,2-diethyl-): upregulated; influence on the behaviour of E. signifier [3]: no obvious influence"
C=CC(=O)OCCCC [Butyl acrylate],high binding affinities,901,900,7180,,
C=C1C2CCC(C2)C1(C)C (centres unmarked) [Camphene],high binding affinities,,990,7870,,
C=C(C)[C@H]1CC=C(C)CC1 [D-limonene],high binding affinities,1430,1430,11400,,
CC12CCC(CC1)C(C)(C)O2 [Eucalyptol],high binding affinities,1270,1270,10100,downregulated; also recorded: significantly lower,"EsigGOBP1 expression vs control [2, 6]: downregulated; also recorded: significantly lower"
c1ccc2ccccc2c1 [Naphthalene],low binding affinities,2690,2690,21500,upregulated,
CC1=CC[C@H](C(C)C)C=C1 [alpha-Phellandrene],high binding affinities,889,890,7080,downregulated; also recorded: extremely significantly lower,influence on the behaviour of E. signifier [3]: no obvious influence
CC1=CCC2CC1C2(C)C (stereo not drawn) [alpha-Pinene],high binding affinities,1240,1240,9860,,
"CCc1ccccc1C [benzene, 1-ethyl-2-methyl-]",,,,,,"EsigGOBP1 expression vs control [2, 6]: upregulated"
Cc1ccccc1C(C)C [o-cymene],,,,,downregulated; also recorded: extremely significantly lower,"EsigGOBP1 expression vs control [2, 6]: upregulated; attraction in behavior choice assays ([3]; 3rd instar larvae): significantly attracted"
C=C1CCC2CC1C2(C)C (stereo not drawn) [β-Pinene],high binding affinities,1320,1320,10500,,"EsigGOBP1 expression vs control [2, 6]: downregulated; EsigGOBP1 expression vs control ([2]; 5th instar larvae, 24 h exposure to volatile, listed as β-pinene): extremely significantly lower; attraction in behavior choice assays ([3]; 5th instar larvae): significantly attracted"
